The results in this text go back to US9981920B2, “Inhibitors of histone deacetylase” (Rodin Therapeutics, Inc., priority 2014, dated 2018).

The structures appear in SMILES notation. Some results are limits rather than exact numbers.

Broadly, the Kd is the concentration at which binding is half-saturated. Higher therefore signals a looser complex.

T1 sequence (Q92769 whole entry): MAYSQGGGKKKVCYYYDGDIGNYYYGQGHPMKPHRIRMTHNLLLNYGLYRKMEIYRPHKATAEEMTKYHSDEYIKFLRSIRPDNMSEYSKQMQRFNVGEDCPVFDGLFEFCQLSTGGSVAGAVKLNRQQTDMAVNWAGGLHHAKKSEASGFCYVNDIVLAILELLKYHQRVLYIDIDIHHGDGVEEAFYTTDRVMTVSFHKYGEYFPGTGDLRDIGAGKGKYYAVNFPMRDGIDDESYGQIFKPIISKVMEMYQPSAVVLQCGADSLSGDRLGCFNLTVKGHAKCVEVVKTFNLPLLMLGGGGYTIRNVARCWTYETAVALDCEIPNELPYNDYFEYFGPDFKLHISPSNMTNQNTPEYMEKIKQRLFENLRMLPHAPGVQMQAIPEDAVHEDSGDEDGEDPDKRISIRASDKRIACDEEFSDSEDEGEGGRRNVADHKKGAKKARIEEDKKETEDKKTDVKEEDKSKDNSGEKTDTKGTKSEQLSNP

The assay has as its target T1, HDAC2 (Homo sapiens, UniProt Q92769).
T1 construct: purchased Proteros
As to the kind of experiment: Reporter displacement assay (HDAC2 Kd). Format: binding. Particulars: HDAC2 with C-terminal HIS-Tag 20 nM, 180 nM reporter probe, read after 4 h; Kd by Cheng Prusoff from probe displacement. As to the method: HDAC2 containing a C-terminal HIS-Tag (Proteros) and fluorescently-labeled anti-HIS-antibody are diluted in one vial in assay buffer 50 mM Tris, pH 8.0, 1 mM DTT, 150 mM NaCl, and 0.01% Tween20. Components are pre-incubated for 30 min, then a small volume of reporter probe (Proteros) is added from a highly concentrated stock and incubation is continued for another 30 min. Final concentrations after adding the reporter probe amount to 20 nM HDAC2, 4 nM antibody, and 180 nM probe.
Ten μl/well of pre-formed complex are transferred into 384 well assay plates (Corning). Compounds to be profiled are serially diluted from 1×10^1-5.7×10^−5 mM in DMSO and 60 nl are added to assay plates by pintool transfer (CybiWell, Cybio). Fluorescence intensity signal is read after 4 h in a Pherastar FS (BMG Labtech) at 337/665 nm.
For Kd determination, percent probe displacement values are calculated for each compound concentration and plotted against the compound concentration. IC50-like values (corresponding to 50% probe displacement) are calculated using standard fitting algorithms. Since the reporter probe is used at a concentration reflecting its own Kd value, compound Kd values can be calculated according to the Cheng Prusoff equation.
In the table, “A” indicates a Kd value of less than 0.1 μM; “B” a Kd value of between 0.1 μM and 1.0 μM; “C” a Kd value of greater than 1.0 μM and less than or equal to 10.0 μM; and “D” a Kd value of greater than 10.0 μM.
With `Cc1ccc(C(=O)CSc2nc(O)c3ccccc3n2)cc1` [Compound 100], the Kd was in the range of 1000 to 10000 nM.

For the molecule `C=CCn1c(SCC(=O)c2ccc(C)cc2)nc(O)cc1=O` [Compound 101], the dissociation constant Kd was less than 100 nM.

Turning to `CCn1c(SCC(=O)c2ccccc2)nc(O)cc1=O` [Compound 102], the Kd is less than 100 nM.

As for `CCc1c(O)nc(SCC(=O)c2ccc(OC)cc2)[nH]c1=O` [Compound 103], the dissociation constant Kd was less than 100 nM.

In turn, `Cc1ccc(C(=O)CSc2nc(C)cc(=O)[nH]2)cc1` [Compound 104] had a Kd of 100 to 1000 nM.

`CCc1ccc(C(=O)CSc2nc(C)cc(=O)[nH]2)cc1` [Compound 105] showed a Kd of 1000 to 10000 nM.

`CC(=O)Nc1ccc(C(=O)CSc2nc(O)cc(=O)[nH]2)cc1` [Compound 106] registered a Kd of less than 100 nM.

For `Cc1ccc(C(=O)CSc2nc(O)cc(=O)[nH]2)cc1` [Compound 107], the Kd is less than 100 nM.

The molecule `C=CCn1c(SCC(O)c2ccc(C)cc2)nc(O)cc1=O` (stereo not shown) [Compound 108] gave a Kd of 100 to 1000 nM.

Take `Cc1ccc(C(=O)COc2nc(C)cc(=O)[nH]2)cc1` [Compound 109]: the equilibrium dissociation constant (Kd) was greater than 10000 nM.

`Cc1ccc(C(=O)CSc2nc(O)c(-c3ccccc3)c(=O)[nH]2)cc1` [Compound 110] gave a Kd of less than 100 nM.

For `O=C(CSc1nc(O)c(Cc2ccccc2)c(=O)[nH]1)c1ccccc1` [Compound 111], the Kd fell in the range of 100 to 1000 nM.

Regarding `Cc1ccc(C(=O)CSc2nc(O)cc(=O)n2C)cc1` [Compound 112], the Kd was in the range of 100 to 1000 nM.

With `Cc1ccc(C(=O)CSc2nc(O)cc(=O)n2C(C)C)cc1` [Compound 113], the Kd lay within 100 to 1000 nM.

In turn, `CC(=O)Nc1ccc(/C(CSc2nc(O)cc(=O)[nH]2)=N\O)cc1` [Compound 114] registered a Kd of 1000 to 10000 nM.

In turn, `CCn1c(SCC(=O)c2ccc(C)cc2)nc(O)cc1=O` [Compound 115] registered a dissociation constant (Kd) of 100 to 1000 nM.

`CC(=O)Nc1ccc(C(=O)CSc2nc(O)cc(=O)n2C)cc1` [Compound 116] registered a Kd of less than 100 nM.

`CCn1c(SCC(=O)c2ccc(NC(C)=O)cc2)nc(O)cc1=O` [Compound 117] showed a Kd of less than 100 nM.

Molecule `CC(=O)Nc1ccc(C(=O)CSc2nc(O)cc(=O)n2C(C)C)cc1` [Compound 118] showed a Kd of less than 100 nM.

`CC(=O)Nc1ccc(C(=O)CSc2nc(O)c(-c3ccccc3)c(=O)[nH]2)cc1` [Compound 119] came in with a Kd of less than 100 nM.

As to `COc1ccc(C(=O)CSc2nc(O)cc(=O)[nH]2)cc1` [Compound 120], the Kd was 100 to 1000 nM.

Consider `COc1ccc(C(=O)CSc2nc(O)c(-c3ccccc3)c(=O)[nH]2)cc1` [Compound 121], for which the Kd is 100 to 1000 nM.

`Nc1ccc(C(=O)CSc2nc(O)c(-c3ccccc3)c(=O)[nH]2)cc1` [Compound 122] had a Kd of 100 to 1000 nM.

As for `CC(=O)Nc1ccc(C(=O)CSc2nc(O)c(C3CCCC3)c(=O)[nH]2)cc1` [Compound 123], the Kd was less than 100 nM.

With `CC(=O)Nc1ccc(C(=O)CSc2nc3ccccc3c(=O)[nH]2)cc1` [Compound 124], the Kd lay within 100 to 1000 nM.

For the molecule `O=C(CSc1nc(O)c(-c2ccccc2)c(=O)[nH]1)c1ccc(NC(=O)c2ccccc2)cc1` [Compound 125], the Kd was less than 100 nM.

For the molecule `CC(C)(C)OC(=O)Nc1ccc(C(=O)CSc2nc(O)c(-c3ccccc3)c(=O)[nH]2)cc1` [Compound 126], the dissociation constant (Kd) fell in the range of 100 to 1000 nM.

In turn, `Nc1ccc(C(=O)CSc2nc(O)cc(=O)[nH]2)cc1` [Compound 127] gave a Kd of 100 to 1000 nM.

On to `O=C(CSc1nc(O)cc(=O)[nH]1)c1ccc(NC(=O)C(F)(F)F)cc1` [Compound 128], for which the Kd was less than 100 nM.

Take `CC(C)C(=O)Nc1ccc(C(=O)CSc2nc(O)cc(=O)[nH]2)cc1` [Compound 129]: the Kd was less than 100 nM.

As to `O=C(CSc1nc(O)cc(=O)[nH]1)c1ccc(NC(=O)c2ccccc2)cc1` [Compound 130], the Kd fell in the range of 100 to 1000 nM.

In the case of `CC(=O)Nc1ccc(C(=O)CSc2nc(O)cc(=O)n2C2CCCC2)cc1` [Compound 131], the Kd is less than 100 nM.

In turn, `CC(=O)Nc1ccc(C(=O)CSc2nc(O)cc(=O)n2-c2ccccc2)cc1` [Compound 132] gave a Kd of 100 to 1000 nM.

`CC(=O)N(C)c1ccc(C(=O)CSc2nc(O)cc(=O)[nH]2)cc1` [Compound 133] came in with a Kd of less than 100 nM.

For `CN(C)c1ccc(C(=O)CSc2nc(O)cc(=O)[nH]2)cc1` [Compound 134], the Kd was 100 to 1000 nM.

Take `CC(C)(C)OC(=O)Nc1ccc(C(=O)CSc2nc(O)cc(=O)[nH]2)cc1` [Compound 135]: the Kd lay in the range of 100 to 1000 nM.

In the case of `CC(=O)Nc1ccc(C(=O)CSc2nc(O)cc(=O)n2C2CC2)cc1` [Compound 136], the Kd fell in the range of 100 to 1000 nM.

In turn, `O=C(CSc1nc(O)cc(=O)[nH]1)c1ccc(N2CCCC2=O)cc1` [Compound 137] gave a Kd of less than 100 nM.

As to `O=C(CSc1nc(O)cc(=O)[nH]1)c1ccc2[nH]cnc2c1` [Compound 138], the Kd lay within 100 to 1000 nM.

`Cc1cccc(C(=O)CSc2nc(O)cc(=O)n2C)c1` [Compound 139] displayed a Kd of 100 to 1000 nM.

Regarding `Cn1c(SCC(=O)c2ccccc2)nc(O)c(-c2ccccc2)c1=O` [Compound 140], the Kd was in the range of 100 to 1000 nM.

In the case of `Cn1c(SCC(=O)c2ccc(F)cc2)nc(O)cc1=O` [Compound 141], the Kd was in the range of 100 to 1000 nM.

Molecule `Cn1c(SCC(=O)c2cccc(F)c2)nc(O)cc1=O` [Compound 142] had an equilibrium dissociation constant (Kd) of less than 100 nM.

Turning to `Cn1c(SCC(=O)c2ccc(Cl)cc2)nc(O)cc1=O` [Compound 143], the dissociation constant (Kd) is 100 to 1000 nM.

With `Cn1c(SCC(=O)c2cccc(Cl)c2)nc(O)cc1=O` [Compound 144], the Kd was 100 to 1000 nM.

`Cc1ccc(C(=O)CSc2nc(=O)c3ccccc3n2C)cc1` [Compound 145] had a Kd of 100 to 1000 nM.
